Measurements published in US20220119868A1, “PROFILING RNA-SMALL MOLECULE BINDING SITES WITH OLIGONUCLEOTIDES” (priority 2018, published 2022).
Values joined by “and” are separate entries in the source; they are usually repeats but may differ in a detail not shown here. Identical values can stand only once.

Tests used:
[1] = tested on: HCV replication, SGR-Neo-RLuc-JFH1-2A replicon cells established in Huh-7.5; test: HCV replication in subgenomic replicon cells (Renilla luciferase); format: cell-based, Hepatitis C virus; settings: for IC50: Hepatitis C virus, Huh7.5, read-out: IC50, inhibition of HCV replication
Excerpt: (§1) The compounds bind their cognate loops in the 3′ UTR with mid-nanomolar to low micromolar affinities (Table 1). It was next determined if the identified compounds could inhibit HCV RNA replication in HCV subgenomic replicon cells, in particular SGR-Neo-RLuc-JFH1-2A replicon cells established in Huh-7.5 (human hepatoma cells). In this system, an autonomously replicating viral RNA replicon is used to monitor efficiently RNA replication of the virus in the absence of spread of viral RNA to adjacent cells. This is achieved by replacing the structural proteins required to assembly progeny virions with a drug selectable marker (Neo) and a Renilla luciferase (RLuc) reporter gene. Once this replicon has been delivered to human hepatoma cells and selection with G418 (conferred by Neo selectable marker) has occurred, the expression and Renilla luciferase activity is directly correlated with the level of HCV replication^57.
They were therefore assayed for their ability to inhibit HCV replication using this replicon system, with DMSO vehicle and 2′-C-methyladenosine^17 triphosphate serving as negative and positive controls, respectively.
(§2) Effect of compounds on HCV replication. […] Cytotoxicity assays. […] Oligonucleotide profiling of target engagement in vitro. […] Primers can be found in Table 4. […] Inhibition of kinases. […] . Figure S7C).

CAMK4 = CAMK4 (Homo sapiens, UniProt Q16566); test: In vitro inhibition of a panel of kinases; format: biochemical; settings: 20 μM
Excerpt: as §2

[2] = target: HCV RNA motif 5′GUG3′/3′C_C5′ (SL I and SL III); test: In solution, fluorescence-based binding affinity assay, HCV RNA motifs; parameters: species or system Hepatitis C virus
Excerpt: as §1
(§3) where n1 is the size of Population 1 (number of sequencing reads for a given RNA from RNA-seq analysis of the selected library), n2 is the size of Population 2 (number of sequencing reads for the same RNA from RNA-seq analysis of the starting library), p1 is the observed proportion of Population 1 (the number of reads for a given RNA from selected library/total number of reads), and p2 is the observed proportion for Population 2 (the number of reads for the same RNA in the starting library/total number of reads). Generation of Logos and DiffLogos: Zobs corresponding to the highest (enriched) 0.5% and lowest (discriminated against) 0.5% scores were analyzed to generate consensus sequences, or Logos. The resulting list of sequences were converted to position weight matrix (PWM) lists for each compound. “Enriched” and “discriminated” sequences were kept separate using JMP®, Version <13.2.1>. SAS Institute Inc., Cary, N.C., 1989-2007. The R package Difflogo,^16 which is part of Bioconductor, was utilized to create the sequence logos from PWM lists for each compound and visually compare the differences between them. Binding Affinity Measurements. Dissociation constants were determined using an in solution, fluorescence-based assay. […] Serial dilutions (1:2) of the small molecule were then completed in 1× Assay Buffer supplemented with 1 mM MgCl2. The solutions were incubated for 30 min at room temperature, transferred to a 96-well plate, and fluorescence intensity measured on a BioTek-FLx800 plate reader. The change in fluorescence intensity as a function of small molecule concentration was fit to a one site binding model per equation 3: […]
as §2

[3] = target: HCV RNA motif 5′UAG3′/3′A_C5′ (SL I); test: as above; parameters: species or system Hepatitis C virus
Excerpt: as §1, §3, §2

[4] = target: HCV RNA motif 5′CUG3′/3′G_C5′ (SL II); test: as above; parameters: species or system Hepatitis C virus
Excerpt: as §1, §3, §2

panel of 22 kinases = test: In vitro inhibition of a panel of kinases; format: biochemical; settings: 20 μM; for kinases inhibited in the panel: panel of 22 kinases
Fully paired RNA = test: In solution, fluorescence-based binding affinity assay
Protocol: (§4) Affinity of Selected RNA Motif-Small Molecule Interactions. The affinity of exemplar compounds that have inherent fluorescence was measured. […] . Binding affinities were confirmed using a label-free method, biolayer interferometry.
as §3, §2

[5] = target: RNA motif 5′UUA3′/3′A_U5′ (from RNA library C); test: as above
Protocol: as §4, §3, §2

CAMK4, sequence (Q16566 whole entry): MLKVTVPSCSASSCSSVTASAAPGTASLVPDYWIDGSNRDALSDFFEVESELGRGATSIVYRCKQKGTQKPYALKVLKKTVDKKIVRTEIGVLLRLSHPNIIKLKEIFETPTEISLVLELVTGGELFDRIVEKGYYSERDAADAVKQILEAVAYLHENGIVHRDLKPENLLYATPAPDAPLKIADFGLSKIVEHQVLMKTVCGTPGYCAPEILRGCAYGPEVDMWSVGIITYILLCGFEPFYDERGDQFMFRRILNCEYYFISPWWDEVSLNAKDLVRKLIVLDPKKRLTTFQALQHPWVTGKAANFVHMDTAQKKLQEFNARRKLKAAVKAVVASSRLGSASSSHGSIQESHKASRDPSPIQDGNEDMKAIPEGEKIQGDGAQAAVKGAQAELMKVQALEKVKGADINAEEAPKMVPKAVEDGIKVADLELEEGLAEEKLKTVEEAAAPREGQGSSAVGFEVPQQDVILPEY

## O=C(Nc1ccc(C2=NCCN2)cc1)c1cc(C(=O)Nc2ccc(C3=NCCN3)cc2)cc(C(=O)Nc2ccc(C3=NCCN3)cc2)c1 [Compound 8]
[1]
  IC50: 14000 ± 1000 nM
[1]; with ASO Control binding 750 nucleotides downstream
  effect on viral replication together with ASO: less robust
[1]; with ASO complementary to SL I, luciferase
  effect on viral replication together with ASO: synergistic effect
CAMK4
  inhibition of CAMK4 in vitro: most significantly inhibited
[2]
  Kd: 1400 ± 160 nM
[3]
  Kd: 849 ± 150 nM
[4]
  Kd: 1400 ± 211 nM
Panel of 22 kinases
  kinases inhibited in the panel: affected seven kinases modestly
  average percent inhibition of the seven affected kinases: 14±3%
Fully paired RNA
  Kd: > 5000 nM
[5]
  Kd: 690 nM and 530 nM

## O=C(Nc1cccc(NC(=O)Nc2cc(C(=O)Nc3ccc(C4=NCCN4)cc3)ccc2C(=O)Nc2ccc(C3=NCCN3)cc2)c1)Nc1cc(C(=O)Nc2ccc(C3=NCCN3)cc2)ccc1C(=O)Nc1ccc(C2=NCCN2)cc1 [Compound 7]
[1]
  IC50: 17000 ± 500 nM
CAMK4
  inhibition of CAMK4 in vitro: most significantly inhibited
[2]
  Kd: 470 ± 32 nM
[3]
  Kd: 460 ± 70 nM
[4]
  Kd: 820 ± 82 nM
Panel of 22 kinases
  kinases inhibited in the panel: affected seven kinases modestly
  average percent inhibition of the seven affected kinases: 16±3%
Fully paired RNA
  Kd: > 7000 nM
[5]
  Kd: 380 ± 26 nM
